Target: T1, SigA (primary sigma factor of RNA polymerase) (Staphylococcus aureus, UniProt P0A0J0)
T1 construct: His-tagged recombinant SigA (sigA from S. aureus RN4220, pET28a)
Assay: pull-down with His-tagged SigA on cobalt magnetic beads, HPLC of eluted compound
Assay type: binding

T1 sequence (P0A0J0 whole entry): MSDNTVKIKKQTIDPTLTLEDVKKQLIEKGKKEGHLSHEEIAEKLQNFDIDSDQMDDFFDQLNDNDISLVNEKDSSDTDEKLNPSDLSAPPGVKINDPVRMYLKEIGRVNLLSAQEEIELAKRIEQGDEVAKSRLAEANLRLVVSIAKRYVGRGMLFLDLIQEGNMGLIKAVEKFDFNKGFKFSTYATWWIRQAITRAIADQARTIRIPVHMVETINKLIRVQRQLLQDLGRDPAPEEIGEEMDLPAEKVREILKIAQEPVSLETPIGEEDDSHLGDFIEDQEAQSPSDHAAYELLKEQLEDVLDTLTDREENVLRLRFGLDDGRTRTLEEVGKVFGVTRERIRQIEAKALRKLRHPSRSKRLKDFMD

CCCNC(=O)N1CCC2(CC1)Nc1cc(F)ccc1-n1cccc12 [GPI0363, 7-fluoro-N-propylspiro[5H-pyrrolo[1,2-a]quinoxaline-4,4′-piperidine]-1′-carboxamide]
pull-down with His-tagged SigA on cobalt magnetic beads, HPLC of eluted compound: The peak of GPI0363 appeared when mixed with SigA whereas the peak was not observed when SigA was omitted

— publication PMC5403886, “A Novel Spiro-Heterocyclic Compound Identified by the Silkworm Infection Model Inhibits Transcription in Staphylococcus aureus” (Frontiers in Microbiology, 2017)
